The source of these data is US20100260737A1, “COMBINATION BETWEEN AN ISOTHIOCYANATE AND LEVODOPA FOR PARKINSON'S DISEASE TREATMENT” (priority 2007, published 2010).

The subject of data set [1] is SH-SY5Y cells. Nature of the data set: L-DOPA-induced neurotoxicity, pulse/chase treatment, Annexin-V/propidium iodide double staining.
In data set [2] the test system is SH-SY5Y cells. The data set is described as follows: H2O2-induced neuronal apoptosis after pre-treatment. Particulars: for toxic effects in SH-SY5Y cells: SUL 0.63 μM, L-DOPA 25 μM. Format: cell-based. Here is the method: It was also evaluated whether the combination could have synergistic effects against neuronal apoptosis induced by H2O2, an oxidant agent in the CNS. In particular, apoptosis is measured 15 h later than 3 h treatment with H2O2 (300 μM).

For data set [3] the following is noted: preliminary phase I study (Shapiro et al. 2006); cited from earlier work.
The test system of data set [4] is neurons. Particulars: prolonged SUL treatment, in vitro; cited from earlier work.

As for `C[S+]([O-])CCCCN=C=S` (stereo not drawn) [SUL, 4-(methylsulfinyl)butyl isothiocyanate], the “L-DOPA-induced apoptosis, post-treatment” value in data set [1] (SUL 2.5 μM added after L-DOPA (400 μM) treatment, FIG. 3) is on record as “significant decrease of apoptosis”. Further, the “L-DOPA-induced apoptosis, co-treatment” value in data set [1] (SUL 0.63-2.5 μM co-treated with L-DOPA 400 μM, FIG. 2) is given as “dose-dependent inhibitory effect”. Further, the “toxic effects in SH-SY5Y cells” value in data set [2] is reported as “did not show any toxic effects”. Besides, the toxicity in humans entry in data set [3] is reported as “absence of toxicity”. Also, in data set [4], the “effect against 1 methyl-4-phenyl-1,2,3,6-tetrahydropyridine” value is on record as “does not show any effect”, the “protection of neurons against 6-hydroxydopamine” value is listed as “protects neurons” and the “protection of neurons against H2O2 damage” value was “protects neurons”.

Take `N[C@@H](Cc1ccc(O)c(O)c1)C(=O)O` [L-DOPA, 3,4-dihydroxyphenylalanine]: in data set [2], the “toxic effects in SH-SY5Y cells” value is on record as “did not show any toxic effects”. Also, the “H2O2-induced apoptosis after L-DOPA pre-treatment” value in data set [2] (pre-treatment 24 h, L-DOPA 25-100 μM tested, effect at more than 50 μM, H2O2 300 μM 3 h, read 15 h later, FIG. 4) was “significantly decreased H2O2-induced apoptosis”.
